Experimental data: the supplement of paper PMC10307832

Experiments:
Experiment in all cases: relative viability (nuclei count vs DMSO), 5 days (fraction); higher = more cells survive
EHT 1864 + Lapatinib = compound: C1COCCN1CC2=CC(=O)C(=CO2)OCCCCCSC3=C4C=CC(=CC4=NC=C3)C(F)(F)F [EHT 1864] + CS(=O)(=O)CCNCc1ccc(-c2ccc3ncnc(Nc4ccc(OCc5cccc(F)c5)c(Cl)c4)c3c2)o1 [Lapatinib] (partner 2 µM)
In short: (§1)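 Lung cancer cell lines in 1536-well plates got either a single drug or a fixed anchor-drug dose together with five library-drug doses (not always all listed) in √10 steps, by pin tool, on the day after seeding. Nuclei were counted after 5 days, and relative viability is the treated-to-vehicle ratio of nuclei counts. Values are medians of duplicate plates.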

EHT 1864 + Crizotinib = compound: C1COCCN1CC2=CC(=O)C(=CO2)OCCCCCSC3=C4C=CC(=CC4=NC=C3)C(F)(F)F [EHT 1864] + C[C@@H](Oc1cc(-c2cnn(C3CCNCC3)c2)cnc1N)c1c(Cl)ccc(F)c1Cl [Crizotinib] (partner 1 µM)
In short: as §1

EHT 1864 + Dasatinib = compound: C1COCCN1CC2=CC(=O)C(=CO2)OCCCCCSC3=C4C=CC(=CC4=NC=C3)C(F)(F)F [EHT 1864] + Cc1nc(Nc2ncc(C(=O)Nc3c(C)cccc3Cl)s2)cc(N2CCN(CCO)CC2)n1 [Dasatinib] (partner 0.075 µM)
In short: as §1

EHT 1864 + Pemetrexed = compound: C1COCCN1CC2=CC(=O)C(=CO2)OCCCCCSC3=C4C=CC(=CC4=NC=C3)C(F)(F)F [EHT 1864] + Nc1nc2[nH]cc(CCc3ccc(C(=O)N[C@@H](CCC(=O)O)C(=O)O)cc3)c2c(=O)[nH]1 [Pemetrexed] (partner 0.2 µM)
In short: as §1

Cell Line | relative viability (EHT 1864 + Lapatinib; first compound 0.04 µM) | relative viability (EHT 1864 + Lapatinib; first compound 0.1265 µM) | relative viability (EHT 1864 + Lapatinib; first compound 0.4 µM) | relative viability (EHT 1864 + Lapatinib; first compound 1.265 µM) | relative viability (EHT 1864 + Lapatinib; first compound 4 µM) | relative viability (EHT 1864 + Crizotinib; first compound 0.04 µM) | relative viability (EHT 1864 + Crizotinib; first compound 0.1265 µM) | relative viability (EHT 1864 + Crizotinib; first compound 0.4 µM) | relative viability (EHT 1864 + Crizotinib; first compound 1.265 µM) | relative viability (EHT 1864 + Crizotinib; first compound 4 µM) | relative viability (EHT 1864 + Dasatinib; first compound 0.04 µM) | relative viability (EHT 1864 + Dasatinib; first compound 0.1265 µM) | relative viability (EHT 1864 + Dasatinib; first compound 0.4 µM) | relative viability (EHT 1864 + Dasatinib; first compound 1.265 µM) | relative viability (EHT 1864 + Dasatinib; first compound 4 µM) | relative viability (EHT 1864 + Pemetrexed; first compound 0.04 µM) | relative viability (EHT 1864 + Pemetrexed; first compound 0.1265 µM) | relative viability (EHT 1864 + Pemetrexed; first compound 0.4 µM) | relative viability (EHT 1864 + Pemetrexed; first compound 1.265 µM) | relative viability (EHT 1864 + Pemetrexed; first compound 4 µM)
COR-L23 | 0.975 | 0.814 | 0.86 | 0.825 | 0.889 | 0.684 | 0.559 | 0.59 | 0.552 | 0.596 | 0.492 | 0.396 | 0.467 | 0.485 | 0.439 | 0.197 | 0.193 | 0.196 | 0.194 | 0.214
NCI-H1755 | 1.08 | 0.866 | 1.04 | 0.998 | 1.05 | 0.891 | 0.833 | 0.794 | 0.814 | 0.845 | 0.424 | 0.333 | 0.425 | 0.369 | 0.399 | 0.477 | 0.376 | 0.389 | 0.468 | 0.388
NCI-H1437 | 0.793 | 0.723 | 0.678 | 0.636 | 0.62 | 0.87 | 0.918 | 0.845 | 0.838 | 0.642 | 0.453 | 0.387 | 0.342 | 0.235 | 0.248 | 0.321 | 0.302 | 0.263 | 0.286 | 0.246
NCI-H2085 | 0.809 | 0.678 | 0.807 | 0.716 | 0.744 | 0.71 | 0.764 | 0.846 | 0.762 | 0.778 | 0.22 | 0.239 | 0.233 | 0.253 | 0.305 | 0.908 | 0.646 | 0.969 | 0.967 | 0.882
H3255 | 0.235 | 0.239 | 0.275 | 0.298 | 0.317 | 0.683 | 0.65 | 0.938 | 0.817 | 1 | 0.437 | 0.391 | 0.346 | 0.344 | 0.343 | 0.532 | 0.603 | 0.576 | 0.572 | 0.561
NCI-H650 | 0.797 | – | 1.33 | 1.07 | 0.989 | 0.71 | – | 0.805 | 0.7 | 0.698 | 0.427 | 0.381 | 0.427 | 0.459 | 0.459 | 0.975 | 0.75 | 0.968 | 0.947 | 0.927
LOU-NH91 | 0.769 | 0.746 | 0.802 | 0.81 | 0.797 | 0.764 | 0.73 | 0.741 | 0.733 | 0.758 | 0.543 | 0.5 | 0.56 | 0.628 | 0.486 | 0.347 | 0.382 | 0.396 | 0.421 | 0.391
NCI-H1650 | 0.741 | 0.443 | 0.812 | 0.841 | 0.589 | 0.857 | 0.653 | 0.947 | 0.911 | 1.15 | – | – | 0.36 | 0.271 | 0.377 | 0.384 | 0.327 | 0.331 | 0.36 | 0.358
NCI-H3122 | 0.976 | 0.825 | 1.03 | 1.08 | 1 | 0.327 | 0.278 | 0.276 | 0.315 | 0.245 | 0.809 | 0.285 | 0.667 | 0.817 | 0.885 | 0.189 | 0.179 | 0.206 | 0.202 | 0.185
PC-3 [JPC-3] | 0.508 | 0.405 | 0.452 | 0.474 | 0.438 | 0.973 | 0.979 | 0.925 | 0.909 | 1.01 | 1.05 | 0.901 | 0.996 | 1.02 | 0.896 | 1.07 | 0.944 | 1.1 | 1.09 | 1.03
NCI-H1651 | 0.856 | 0.788 | 0.843 | 0.824 | 0.912 | 0.865 | 0.798 | 0.826 | 0.801 | 0.843 | 0.407 | 0.425 | 0.332 | 0.37 | 0.471 | 0.529 | 0.662 | 0.565 | 0.553 | 0.55
NCI-H2087 | 1.03 | 0.485 | 1.01 | 0.614 | 0.789 | 0.872 | 0.662 | 0.698 | 0.737 | 0.753 | 0.851 | – | 0.758 | 0.846 | 0.825 | 0.691 | – | 0.596 | 0.642 | 0.657
